# Experiments:
# Assay type in all cases: in vivo
# [1] = tested on: sedge, umbrella (small-flower umbrella sedge, Cyperus difformis); experiment: Test B flooded paddy test, visual plant response rating 0-100; conditions: 250 g ai/ha, Flood, applied to paddy water, evaluated after 13 days
# In short: (§1)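 2-leaf plants; flood 3 cm over soil; compound dosed into paddy water; depth kept constant; greenhouse 13 d; visual scoring vs controls. Dash = no result.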
# [2] = tested on: ducksalad (Heteranthera limosa); experiment: as above; conditions: 250 g ai/ha, Flood, applied to paddy water, evaluated after 13 days
# In short: as §1
# rice (Oryza sativa) = experiment: as above; conditions: 250 g ai/ha, Flood, applied to paddy water, evaluated after 13 days
# In short: as §1
# [3] = tested on: barnyardgrass (Echinochloa crusgalli); experiment: as above; conditions: 250 g ai/ha, Flood, applied to paddy water, evaluated after 13 days
# In short: as §1
# [4] = tested on: barnyardgrass (Echinochloa crus-galli); experiment: Test A postemergence application, visual injury rating 0-100
# In short: (§2)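 Preemergence directed soil spray or postemergence spray (2-10 cm, 1-2 leaf); loam/sand mix; compound in non-phytotoxic solvent + surfactant. Greenhouse, 10 d. Visual injury vs untreated, 0 = none, 100 = complete control.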
# [5] = tested on: blackgrass (Alopecurus myosuroides); experiment: as above
# In short: as §2
# soybean (Glycine max) [6] = experiment: as above
# In short: as §2
# [7] = tested on: ragweed (common ragweed, Ambrosia artemisiifolia); experiment: as above
# In short: as §2
# kochia (Bassia scoparia) [8] = experiment: as above
# In short: as §2
# [9] = tested on: palmer (palmer amaranth, palmer pigweed, Amaranthus palmeri); experiment: as above
# In short: as §2
# [10] = tested on: wheat (Triticum aestivum); experiment: as above
# In short: as §2
# [11] = tested on: oat, wild (wild oat, Avena fatua); experiment: as above
# In short: as §2
# [12] = tested on: horseweed (Erigeron canadensis); experiment: as above
# In short: as §2
# [13] = tested on: green foxtail (Setaria viridis); experiment: as above
# In short: as §2
# [14] = tested on: ryegrass, Italian (italian ryegrass, Lolium multiflorum); experiment: as above
# In short: as §2
# corn (Zea mays) [15] = experiment: as above
# In short: as §2
# [16] = tested on: barnyardgrass (Echinochloa crus-galli); experiment: Test A preemergence soil spray, visual injury rating 0-100; conditions: 10 days
# In short: as §2
# [17] = tested on: blackgrass (Alopecurus myosuroides); experiment: as above; conditions: 10 days
# In short: as §2
# soybean (Glycine max) [18] = experiment: as above; conditions: 10 days
# In short: as §2
# [19] = tested on: ragweed (common ragweed, Ambrosia artemisiifolia); experiment: as above; conditions: 10 days
# In short: as §2
# kochia (Bassia scoparia) [20] = experiment: as above; conditions: 10 days
# In short: as §2
# [21] = tested on: palmer (palmer amaranth, palmer pigweed, Amaranthus palmeri); experiment: as above; conditions: 10 days
# In short: as §2
# [22] = tested on: wheat (Triticum aestivum); experiment: as above; conditions: 10 days
# In short: as §2
# [23] = tested on: oat, wild (wild oat, Avena fatua); experiment: as above; conditions: 10 days
# In short: as §2
# [24] = tested on: green foxtail (Setaria viridis); experiment: as above; conditions: 10 days
# In short: as §2
# [25] = tested on: ryegrass, Italian (italian ryegrass, Lolium multiflorum); experiment: as above; conditions: 10 days
# In short: as §2
# corn (Zea mays) [26] = experiment: as above; conditions: 10 days
# In short: as §2
# [27] = 62 g ai/ha, postemergence, 10 days, 0 = no effect, 100 = complete control
# [28] = Postemergence, 16 g ai/ha, greenhouse 10 days, 0 no effect, 100 complete control
# [29] = 62 g ai/ha, 0 = no effect, 100 = complete control
smiles,measurement,setting,value
CCOC(=O)C1=CCC(NC(=O)C2(C)CN(c3cc(Cl)cc(Cl)c3)C(=O)O2)C1 (centres unmarked) [Compound 114],"Plant response rating, Sedge, Umbrella (0 to 100 scale, 0 is no effect and 100 is complete control)",[1],98
same,"Plant response rating, Ducksalad (0 to 100 scale, 0 is no effect and 100 is complete control)",[2],80
same,"Plant response rating, Rice (0 to 100 scale, 0 is no effect and 100 is complete control)",rice (Oryza sativa),55
same,"Plant response rating, Barnyardgrass (0 to 100 scale, 0 is no effect and 100 is complete control)",[3],90
same,Barnyardgrass plant response rating (0-100),[4]; [27],100
same,Barnyardgrass plant response rating (0 to 100 scale),[4]; [28],100
same,Blackgrass plant response rating (0-100),[5]; [27],80
same,Blackgrass plant response rating (0 to 100 scale),[5]; [28],50
same,Soybean plant response rating (0-100),soybean (Glycine max) [6]; [27],70
same,Soybean plant response rating (0 to 100 scale),soybean (Glycine max) [6]; [28],50
same,Ragweed plant response rating (0-100),[7]; [27],50
same,Ragweed plant response rating (0 to 100 scale),[7]; [28],10
same,Kochia plant response rating (0-100),kochia (Bassia scoparia) [8]; [27],90
same,Kochia plant response rating (0 to 100 scale),kochia (Bassia scoparia) [8]; [28],80
same,"Pigweed, Palmer plant response rating (0-100)",[9]; [27],90
same,"Pigweed, Palmer plant response rating (0 to 100 scale)",[9]; [28],90
same,Wheat plant response rating (0-100),[10]; [27],90
same,Wheat plant response rating (0 to 100 scale),[10]; [28],80
same,"Oat, Wild plant response rating (0-100)",[11]; [27],40
same,"Oat, Wild plant response rating (0 to 100 scale)",[11]; [28],30
same,Horseweed plant response rating (0-100),[12]; [27],70
same,Horseweed plant response rating (0 to 100 scale),[12]; [28],20
same,"Foxtail, Green plant response rating (0-100)",[13]; [27],90
same,"Foxtail, Green plant response rating (0 to 100 scale)",[13]; [28],80
same,"Ryegrass, Italian plant response rating (0-100)",[14]; [27],80
same,"Ryegrass, Italian plant response rating (0 to 100 scale)",[14]; [28],50
same,Corn plant response rating (0-100),corn (Zea mays) [15]; [27],100
same,Corn plant response rating (0 to 100 scale),corn (Zea mays) [15]; [28],100
same,Barnyardgrass plant response rating,"[16]; 16 g ai/ha, 0 to 100 scale",0
same,Barnyardgrass plant response rating (0-100),[16]; [29],90
same,Blackgrass plant response rating,"[17]; 16 g ai/ha, 0 to 100 scale",0
same,Blackgrass plant response rating (0-100),[17]; [29],20
same,Soybean plant response rating,"soybean (Glycine max) [18]; 16 g ai/ha, 0 to 100 scale",0
same,Soybean plant response rating (0-100),soybean (Glycine max) [18]; [29],10
same,Ragweed plant response rating,"[19]; 16 g ai/ha, 0 to 100 scale",0
same,Ragweed plant response rating (0-100),[19]; [29],0
same,Kochia plant response rating,"kochia (Bassia scoparia) [20]; 16 g ai/ha, 0 to 100 scale",0
same,Kochia plant response rating (0-100),kochia (Bassia scoparia) [20]; [29],0
same,"Pigweed, Palmer plant response rating","[21]; 16 g ai/ha, 0 to 100 scale",40
same,"Pigweed, Palmer plant response rating (0-100)",[21]; [29],90
same,Wheat plant response rating,"[22]; 16 g ai/ha, 0 to 100 scale",0
same,Wheat plant response rating (0-100),[22]; [29],40
same,"Oat, Wild plant response rating","[23]; 16 g ai/ha, 0 to 100 scale",0
same,"Oat, Wild plant response rating (0-100)",[23]; [29],20
same,"Foxtail, Green plant response rating","[24]; 16 g ai/ha, 0 to 100 scale",0
same,"Foxtail, Green plant response rating (0-100)",[24]; [29],90
same,"Ryegrass, Italian plant response rating","[25]; 16 g ai/ha, 0 to 100 scale",0
same,"Ryegrass, Italian plant response rating (0-100)",[25]; [29],80
same,Corn plant response rating,"corn (Zea mays) [26]; 16 g ai/ha, 0 to 100 scale",0
same,Corn plant response rating (0-100),corn (Zea mays) [26]; [29],30
